US6864272B2, “Method and composition for treating cancer using cellular organelle crystallizing agents” (priority 2000, dated 2005)

Tests used:
SDH = assay: Inhibition of crystal formation on cellular structures by prior incubation with SDH inhibitor; type: cell-based; conditions: prior incubation of cells with the SDH inhibitor, crystals of Examples 4 through 7
Description: The crystallization of organelles, such as centrosome, mitochondrion, or nuclear envelopes (or endoplasmic retulum), effectively stopped cell proliferation and induced cell death as well. This kind of cell death, which is different form either necrosis or appoptosis, is called cellular-organelle-crystallizatin-induced-death, […]. COCID also refers to the cell death, induced by the crystallization of cytoskeletons as well as the crystallization of the sub-units of cellular organelles and cytoskeletons. COCID further refers to the cell death, induced by the crystallization of proteins and small molecules located on cytoskeletons or the sub-units of cellular organelles and ccytoskeletons.
[…]

9 L gliosarcoma = assay: In vivo antitumor activity of tetrazolium salts in polylactic acid polymer, established flank tumor in rats (Example 3); conditions: 2.5 mg/kg in polylactic acid polymer implanted in 14 day established tumor, tumor volume on day 60, n=6

Row | Compound | inhibition of the crystals on the cellular structures (SDH) | Tumor size (9 L gliosarcoma) [cm^3]
1 | O=C(O)CC[N+](=O)[O-] [nitropropionic acid] | could be inhibited | 
2 | c1ccc(-c2nn(-c3ccccc3)[n+](-c3cccc4ccccc34)n2)cc1 [TV, 2,5-diphenyl-3-[1-naphthyl]-2H-tetrazolium chloride] |  | 21 ± 2.3
3 | c1ccc(-c2nn(-c3ccccc3)[n+](-c3ccccc3)n2)cc1 [TR, 2,3,5-triphenyltetrazolium chloride] |  | 44 ± 5.3
